Data reported in patent publication US9549977B2 (priority 2011, dated 2017).
Marks after values point to notes of the source that are not given here.

Key:
[1] = tested on: IL 15; assay: IL 15 expression in peripheral blood leukocytes, real time PCR; format: cell-based, rainbow trout (Oncorhynchus mykiss)
Experimental: (§1) FIG. 5. Expression analysis by real time PCR of the in vitro effect of PACAP38 over the transcription of IL 15 in peripheral blood leukocytes (A) and head kidney (B) of neïve rainbow trout. The effects of PACAP administration at a concentration of 10^−10 M, 10^−9 M and 10^−8 M was evaluated at 48 h post-treatment. The experiment was repeated 4 times. The leukocyte cultures were treated in duplicates and the PCRs were performed in triplicates. Data are expressed as the mean of the relative expression of IL 15 related to the endogenous elongation factor EF1α±standard deviation (SD). (*) p<0.05.
(§2) We used juvenile rainbow trout (O. mykiss) of approximately 50 g, free of the VHSV and IPNV. Fish (n=5) were anesthetized with methanesulfonic acid salt (Sigma, USA) and peripheral blood from the tail vein was taken aseptically of each fish and then the head kidney was collected. […]
(§3) The levels of IL 1β and IL 15 were evaluated 48 hours after treatment. […]
(§4) For cDNA synthesis was used a commercial kit that use the SuperScript III reverse transcriptase (Invitrogen). Finally, for quantitative PCRs (qPCRs) was used a commercial mixture of PCR: Power SYBR Green PCR Master Mix (Applied Biosystems). […] The results were expressed as 2^−ΔCt, where ΔCt is equal to the remainder of the Ct value of the target gene minus the Ct value of the normalized gene EF 1α.

[2] = tested on: IL 1β; assay: IL 1β transcription in head kidney leukocytes, real time PCR; format: cell-based, rainbow trout (Oncorhynchus mykiss); details: 10^−10, 10^−9, 10^−8 M tested, 48 h
Experimental: (§5) FIG. 4. Expression analysis by real time PCR of the in vitro effect of PACAP38 over the transcription of IL 1β in peripheral blood leukocytes (A) and head kidney (B) of naïve rainbow trout. The effects of PACAP administration at a concentration of 10^−10 M, 10^−9 M and 10^−8 M was evaluated at 48 h post-treatment. The experiment was repeated 4 times. The leukocyte cultures were treated in duplicates and the PCRs were performed in triplicate. Data are expressed as mean of relative expression of IL 1β related to the endogenous elongation factor EF1α±standard deviation (SD).
as §2, §3, §4

[3] = tested on: Caligus rogercresseyi; assay: Controlled challenge test with Caligus rogercresseyi in immunized Salmo salar
Experimental: In this experiment were established six experimental groups of 25 animals (average weight 80 g) each one:
Group 1: Injected IP with PBS
Group 2: Injected IP with PACAP38 at the dose of 1 μg/fish
Group 3: Injected IP with my32 at the dose of 3 μg/g of body weight (gbw)
Group 4: Co-administration by IP injection of my32 at 3 μg/gbw and PACAP at the dose of 1 μg/fish
Group 5: Fish injected IP with my32 at the dose of 3 μg/gbw and fed with 250 μg of PACAP/Kg of feed daily, for one week before and after de immunization with my32.
After 500 arbitrary thermal units, fish were adapted to seawater for two weeks. Subsequently, they were challenged with 2000±200 copepodites to each tank. […] Turnover and filtration was performed manually every 48 hours. At 24 days, fish were anesthetized and killed for parasite counting under a stereomicroscope.

[4] = tested on: IL 1β; assay: IL 1β transcription in peripheral blood leukocytes, real time PCR; format: cell-based, rainbow trout (Oncorhynchus mykiss)
Experimental: as §5, §2, §3, §4

[5] = tested on: Ichthyophthirius multifiliis; assay: Survival of channel catfish immunized and challenged with live theronts of I. multifiliis; format: in vivo, channel catfish (Ictalurus punctatus); details: PACAP immersion baths 100 μg/L, 6 baths of 1 hour, versus immunized fish
Experimental: An experiment was conducted to evaluate the effect of PACAP administration, after immunization with ciliated parasite theronts I. multifiliis, on survival of channel catfish (I. punctatus). The vaccination and challenge procedure was performed as proposed by Wang and Dickerson ((2002) Clinical and Diagnostic Laboratory Immunology 9 (1), 176-181). Four experimental groups of 25 fish (12±5 g) each one were established:
Group 1: Fish immunized on days 1 and 35 with PBS.
Group 2: Fish immunized on day 1 with 8000 live theronts I. multifiliis and at day 35 with 10,000 living theronts parasite.
Group 3: Fish immunized on day 1 with 8000 live theronts I. multifiliis and at day 35 with 10,000 living theronts parasite. These fish also received by immersion baths the neuropeptide PACAP at a dose of 100 μg of PACAP/L of water. The treatment was performed for 1 hour, on alternate days, in the two weeks prior to challenge (six immersion baths).
Group 4: Fish immunized on day 1 with 8000 live theronts I. multifiliis and at day 35 with 10,000 living theronts parasite. These fish were also subjected to immersion baths for 1 hour without PACA, by a procedure similar to Group 3.
Prior to the immunizations fish were treated with formalin to remove existing ectoparasites. The fish were maintained at 23±2° C. and continuous water flow. At day 84, the fish were challenged with 15 000 theronts. […]

[6] = tested on: IL 15; assay: IL 15 expression in head kidney leukocytes, real time PCR; format: cell-based, rainbow trout (Oncorhynchus mykiss); details: 10^−9 M, 48 h, vs negative control
Experimental: as §1, §2, §3, §4

With PACAP38 the “expression of the IL 15 (relative to EF1α)” value ([1]; 10^−9 M, 48 h) was “stimulatory effect”, the “expression of the IL 15 (relative to EF1α)” value ([1]; 10^−10 M, 48 h (highest values)) was “stimulatory effect” and the “IL1β transcription (relative expression to EF1α)” value [2] was “stimulatory effect only at a dose of 10^−9 M”. The “Inhibition of the infestation (%)” value ([3]; 24 days post-challenge, (1 − T/C) × 100 versus placebo group) was 22%, the Number of parasites/fish ([3]; S. salar, 24 days post-challenge with C. rogercresseyi, PACAP 1 μg/fish IP or 250 μg/Kg feed, my32 3 μg/gbw IP) was 29 ± 5^b and the “transcription of IL 1β (relative expression to EF1α)” value ([4]; 10^−9 M, 48 h, vs negative control, below the 10^−10 M level) was “stimulatory effect”. For the same substance, the “IL 1β levels (relative expression to EF1α)” value ([4]; 10^−10 M, 48 hours) was “increased”, the “increase in survival of immunized fish simultaneously treated with PACAP” value [5] was 27% and the “IL 15 expression levels (relative to EF1α)” value [6] was “statistically higher than the negative control group”.
